Results: US9133139B2, “Fluoroalkyl-1,4-benzodiazepinone compounds” (BRISTOL-MYERS SQUIBB COMPANY, priority 2012, dated 2015)

Assays:
[1] = test system: TALL-1; assay: Human Tumor Xenograft Models in Mice, TALL-1; assay type: in vivo; conditions: for Antitumor Activity in TALL-1 (LCK), QD dosing / Antitumor Activity in TALL-1 (LCK), BID dosing: oral; for Antitumor Activity in TALL-1 (LCK), QD dosing: TALL-1 xenograft in NOD-SCID mice; for antitumor activity with oral administration (PO): Human Tumor Xenograft Models in mice; for Antitumor Activity in TALL-1 (LCK), BID dosing: BID × 10, TALL-1 xenograft in NOD-SCID mice
Procedure: Human Tumor Xenograft Models in Mice
Mice were fed food and water ad libitum.
Preclinical Chemotherapy Trials
When death occurred, the day of death was recorded.
In Vivo Antitumor Activity

[2] = Human metabolic stability half-life assay (liver microsomes); assay type: in vitro ADME; conditions: pH 7.4, human liver microsomes, CYP-mediated (NADPH-dependent), 0.5 μM compound, 45-minute time course, read-out: HLM (t1/2, min)
Procedure: Metabolic Stability Half-Life Panel
Result Interpretation Guideline
Incubation with Liver Microsomes
Sample Analysis—Instrumentation

[3] = test system: human Notch 3; assay: Notch-CBF1 Transactivation Assay (luciferase reporter, transfected HeLa cells), Notch 3; assay type: cell-based; conditions: read-out: Notch 3 (IC50); HeLa cells transfected with truncated Notch 3 and CBF1 luciferase reporter, 18 hours incubation
From the text: (§1) Notch-CBF1 Transactivation Assay
(§2) The Notch-CBF1 (C-promoter binding factor I) cell based transactivation assay is based on the ability of the released Notch intracellular domain fragments (NICDs) to function as transcription factors in conjunction with CBF1 and other nuclear factors. Luciferase assays were used to measure the antagonism of Notch-CBF1 transcriptional activity. HeLa cervical cancer cells are transiently co-transfected with pCDNA3.1/Hygro plasmids containing truncated Notch 1, Notch 2, Notch 3, or Notch 4 receptors and a PGL3 luciferase reporter vector containing 4 copies of CBF1 binding site. The cells were then tested for Notch-CBF1 activity in the absence or presence of test compounds. HeLa cells, maintained in DMEM (high glucose with HEPES), 1× glutamine/penicillin/streptomycin and 10% Fetal Bovine serum, were transiently transfected in a T175 Flask (4.5×10^6 cells/flask) using the Monster Transfection Kit (Minis #MIR2906) according to manufacturers specifications. Table 2 denotes respective DNA quantity for the transfections.
(§3) Assay media (5 μL) containing test compounds in final concentrations ranging from 5 μM to 8.4×10^−5 μM (3 fold serial dilutions) were added to the cells and the cell plates were then incubated for 18 hours at 37° C. and 5% CO2. Control wells contained DMSO vehicle (total counts) or 0.5 μM of an in-house small molecule inhibitor (background counts). Duplicates were used for each sample. Luciferase activity was measured after a 20-minute incubation with 50 μl STEADY-GLO® luciferase reagents according to manufacturer's specifications (Promega, Cat. #E2550) and analyzed by Envision plate reader (PerkinElmer, Boston, Mass.).
(§4) The antagonist effect of compounds was expressed as 100×[1−(average sample−average background)/(average total−average background)] where sample is the luciferase activity in the presence of test compound, background is equal to the luciferase activity in the presence of the small molecule inhibitor control and the total is signal induced in DMSO wells.

[4] = test system: human Notch 1; assay: Notch-CBF1 Transactivation Assay (luciferase reporter, transfected HeLa cells), Notch 1; assay type: cell-based; conditions: read-out: Notch 1 (IC50); HeLa cells transfected with truncated Notch 1 and CBF1 luciferase reporter, 18 hours incubation
From the text: as §1, §2, §3, §4

[5] = High Throughput (HT) Metabolic Stability Panel, mouse microsomes; assay type: in vitro ADME; conditions: ten-minute incubation, control compound expected values
Procedure: (§5) High Throughput (HT) Metabolic Stability Panel
(§6) Each compound was tested in duplicate.
(§7) Methods and Materials Incubation with Liver Microsomes
(§8) Peak integration was performed with the XCALIBUR® software.
(§9) A set of three compounds was tested along with the test compound in each assay plate.

[6] = High Throughput (HT) Metabolic Stability Panel, monkey microsomes; assay type: in vitro ADME; conditions: ten-minute incubation, control compound expected values
Procedure: as §5, §6, §7, §8, §9

[7] = High Throughput (HT) Metabolic Stability Panel, human microsomes; assay type: in vitro ADME; conditions: ten-minute incubation, control compound expected values
Procedure: as §5, §6, §7, §8, §9

[8] = High Throughput (HT) Metabolic Stability Panel, rat microsomes; assay type: in vitro ADME; conditions: ten-minute incubation, control compound expected values
Procedure: as §5, §6, §7, §8, §9

[9] = High Throughput (HT) Metabolic Stability Panel, dog microsomes; assay type: in vitro ADME; conditions: ten-minute incubation, control compound expected values
Procedure: as §5, §6, §7, §8, §9

SMILES | antitumor activity with oral administration (PO) [1] | half-life at 0.5 μM [2] [min] | IC50 [3] [nM] | IC50 [4] [nM] | other results
CN1C(=O)[C@@H](NC(=O)[C@H](CCC(F)(F)F)[C@@H](C(N)=O)c2ccccc2)N=C(c2ccccc2)c2ccccc21 [Example 1, (2R,3R)—N-((3S)-1-Methyl-2-oxo-5-phenyl-2,3-dihydro-1H-1,4-benzodiazepin-3-yl)-3-phenyl-2-(3,3,3-trifluoropropyl)succinamide] | showed antitumor activity | – | – | – | Antitumor Activity in TALL-1 (LCK), QD dosing ([1]; Dose 24 (unit not given)): 3.5 LCK
Cc1cccc2c1NC(=O)[C@@H](NC(=O)[C@H](CCC(F)(F)F)[C@@H](C(N)=O)c1ccccc1)N=C2c1cccc(F)c1 [Example 5, (2R,3R)—N1-((S)-5-(3-Fluorophenyl)-9-methyl-2-oxo-2,3-dihydro-1H-benzo[e][1,4]diazepin-3-yl)-3-phenyl-2-(3,3,3-trifluoropropyl)succinamide] | – | ≥ 30 | 14.2 | – | –
NC(=O)[C@@H](c1cccnc1)[C@@H](CCC(F)(F)F)C(=O)N[C@H]1N=C(c2ccccc2)c2ccccc2NC1=O [Example 10, (2R,3R)—N1-((S)-2-Oxo-5-phenyl-2,3-dihydro-1H-benzo[e][1,4]diazepin-3-yl)-3-(pyridin-3-yl)-2-(3,3,3-trifluoropropyl)succinamide] | – | – | 22.9 | 19.3 | –
COc1cccc2c1NC(=O)[C@@H](NC(=O)[C@H](CCC(F)(F)F)[C@@H](C(N)=O)c1ccccc1)N=C2c1ccccc1 [Example 21, (2R,3R)—N1-((S)-9-Methoxy-2-oxo-5-phenyl-2,3-dihydro-1H-benzo[e][1,4]diazepin-3-yl)-3-phenyl-2-(3,3,3-trifluoropropyl)succinamide] | showed antitumor activity | ≥ 30 | – | – | Antitumor Activity in TALL-1 (LCK), QD dosing ([1]; Dose 40 (unit not given)): 2.7 LCK
NC(=O)[C@@H](c1ccccc1)[C@@H](CCC(F)(F)F)C(=O)N[C@H]1N=C(c2ccccc2)c2ccccc2N(c2ccc(Cl)cn2)C1=O [Example 22, (2R,3R)—N-((3S)-1-(5-Chloro-2-pyridinyl)-2-oxo-5-phenyl-2,3-dihydro-1H-1,4-benzodiazepin-3-yl)-3-phenyl-2-(3,3,3-trifluoropropyl)succinamide] | – | – | 11.6 | 16 | –
Cc1nocc1[C@H](C(N)=O)[C@@H](CCC(F)(F)F)C(=O)N[C@H]1N=C(c2ccccc2)c2ccccc2N(c2ccc(Cl)cn2)C1=O [Example 23, (2R,3R)—N-((3S)-1-(5-Chloro-2-pyridinyl)-2-oxo-5-phenyl-2,3-dihydro-1H-1,4-benzodiazepin-3-yl)-3-(3-methyl-4-isoxazolyl)-2-(3,3,3-trifluoropropyl)succinamide] | – | ≥ 30 | 13.7 | 15.4 | –
COc1cc(C#N)cc2c1NC(=O)[C@@H](NC(=O)[C@H](CCC(F)(F)F)[C@@H](C(N)=O)c1ccccc1)N=C2c1ccccc1 [Example 25, (2R,3R)—N1-((S)-7-Cyano-9-methoxy-2-oxo-5-phenyl-2,3-dihydro-1H-benzo[e][1,4]diazepin-3-yl)-3-phenyl-2-(3,3,3-trifluoropropyl)succinamide] | – | – | 19.1 | 24.2 | –
NC(=O)[C@@H](c1ccccc1)[C@@H](CCC(F)(F)F)C(=O)N[C@H]1N=C(c2ccccc2)c2cccc(OC3CC3)c2NC1=O [Example 26, (2R,3R)—N1-((S)-9-Cyclopropoxy-2-oxo-5-phenyl-2,3-dihydro-1H-benzo[e][1,4]diazepin-3-yl)-3-phenyl-2-(3,3,3-trifluoropropyl)succinamide] | showed antitumor activity | ≥ 30 | – | – | Antitumor Activity in TALL-1 (LCK), BID dosing ([1]; Dose 10 (unit not given)): 1.4 LCK
Cc1cccc2c1NC(=O)[C@@H](NC(=O)[C@H](CCC(F)(F)F)[C@@H](C(N)=O)c1ccccc1)N=C2c1ccc(F)cc1 [Example 27, (2R,3R)—N1-((S)-5-(4-Fluorophenyl)-9-methyl-2-oxo-2,3-dihydro-1H-benzo[e][1,4]diazepin-3-yl)-3-phenyl-2-(3,3,3-trifluoropropyl)succinamide] | – | ≥ 30 | – | 15.3 | –
Cc1cccc2c1NC(=O)[C@@H](NC(=O)[C@H](CCC(F)(F)F)[C@@H](C(N)=O)c1ccccc1)N=C2c1ccccc1 [Example 30, (2R,3R)—N1-((S)-9-Methyl-2-oxo-5-phenyl-2,3-dihydro-1H-benzo[e][1,4]diazepin-3-yl)-3-phenyl-2-(3,3,3-trifluoropropyl)succinamide] | showed antitumor activity | ≥ 30 | – | – | Antitumor Activity in TALL-1 (LCK), BID dosing ([1]; Dose 20 (unit not given)): 1.2 LCK
Cc1cccc2c1NC(=O)[C@@H](NC(=O)[C@H](CCC(F)(F)F)[C@@H](C(N)=O)c1ccccc1)N=C2c1cccc(Cl)c1 [Example 31, (2R,3R)—N1-((S)-5-(3-Chlorophenyl)-9-methyl-2-oxo-2,3-dihydro-1H-benzo[e][1,4]diazepin-3-yl)-3-phenyl-2-(3,3,3-trifluoropropyl)succinamide] | showed antitumor activity | ≥ 30 | – | – | –
Cc1cccc2c1NC(=O)[C@@H](NC(=O)[C@H](CCC(F)(F)F)[C@@H](C(N)=O)c1conc1C)N=C2c1ccc(F)cc1 [Example 33, (2R,3R)—N1-((S)-5-(4-Fluorophenyl)-9-methyl-2-oxo-2,3-dihydro-1H-benzo[e][1,4]diazepin-3-yl)-3-(3-methylisoxazol-4-yl)-2-(3,3,3-trifluoropropyl)succinamide] | – | ≥ 30 | 11.5 | 19 | –
CCc1nn(CCCN2CCN(c3cccc(Cl)c3)CC2)c(=O)n1CCOc1ccccc1 [Nefazodone] | – | – | – | – | Average Percent Remaining ± SD, Mouse [5]: 0.4 ± 0.3%; Average Percent Remaining ± SD, Monkey [6]: 0.6 ± 0.5%; Average Percent Remaining ± SD, Human [7]: 0.4 ± 0.4%; Average Percent Remaining ± SD, Rat [8]: 0.7 ± 0.6%; Average Percent Remaining ± SD, Dog [9]: 0.4 ± 0.4%
